{"source": "paper PMC7756341", "about": "“Liposomal FRET Assay Identifies Potent Drug‐Like Inhibitors of the Ceramide Transport Protein (CERT)” (Chemistry (Weinheim an Der Bergstrasse, Germany), 2020)", "key": {"HeLa cells [1]": {"tested_on": "HeLa cells", "assay": "Sphingolipid content of treated HeLa cells by quantitative mass spectrometry", "assay_type": "cell-based", "conditions": "for Cer16 / Cer18 / Cer20 / Cer22 / Cer24 / Cer24:1 / Cer total / S1P / SM16 / SM18 / SM20 / SM22 / SM24 / SM24:1 / SM total / Sph / ratio total SM/Cer: HeLa, 42h, single replicates; for Cer16 / Cer18 / Cer20 / Cer22 / Cer24 / Cer24:1 / Cer total / S1P / SM16 / SM18 / SM20 / SM22 / SM24 / SM24:1 / SM total / Sph: 500.000 cells per sample", "procedure": "5.2 Cellular experiment for lipidomic analysis\nHela cells were cultured in six well plates (177000 cells per well) under standard growth conditions (DMEM with 4mM L-glutamine, 10% FBS, 1% Penicillin-Streptomycin; CO2 incubator with […]\n37°C, 5% CO2). […]\nAfter incubation, […]\nthe adherent cells were washed twice with ice-cold PBS and harvested by treatment with trypsin.\nCells were counted using a Countess II cell counter ( Invitrogen) and adjusted to 500.000 cells per sample. Each sample was then treated as described below.\n6. Details for experimental lipidomics\nCells were subjected to lipid extraction using 1.5 mL methanol/chloroform (2:1, v:v) as described. The extraction solvent contained C17-ceramide (Cer17) and C16 -d31-sphingomyelin (d31-SM16) (both Avanti Polar Lipids, Alabaster, USA) as internal standards. Chromatographic separations were achieved on a 1260 Infinity HPLC (Agilent Technologies, Waldbronn, Germany) equipped with a Poroshell 120 EC-C8 column (3.0 × 150 mm, 2.7 µm; Agilent Technologies). A mobile phase system consisting of water (solvent A) and acetonitrile/methanol (1:1, v:v; solvent B), both acidified with 0.1% formic acid, was used for gradient elution at an initial composition of 40:60 (A:B, v:v) and a flow rate of 0.5 mL/min. MS/MS analyses were carried out using a 6490 triple-quadrupole mass spectrometer (Agilent Technologies) operating in the positive electrospray ionization mode (ESI+). The following ion source parameters were set: sheath gas temperature, 375 °C; sheath gas flow, 12 L/min of nitrogen; nebulizer pressure, 30 psi; drying gas temperature, 200 °C; drying gas flow, 15 L/min of nitrogen; capillary voltage, 4000 V; nozzle voltage, 1500 V; iFunnel high pressure RF voltage, 150 V and iFunnel low pressure RF voltage, 60 V. The following mass transitions were recorded (collision energies of 25 eV for all transitions): ceramides: m/z […]\nwith MassHunter Software (Agilent Technologies). Significance of differences between two samples was calculated by student’s t -test. Asterisks indicate significant differences between treated and untreated samples: * p<0.05; ** p<0.01; *** p<0.005.\nTable S1. Sphingolipid content of treated cells.\n(§1) (1 picture or pasted object on this page, not shown here)"}, "HeLa cells [2]": {"tested_on": "HeLa cells", "assay": "Cellular localization of BODIPY-ceramide by confocal microscopy", "assay_type": "cell-based", "conditions": "10 µM inhibitor, 2 h", "procedure": "5.1 Cellular Localization of BODIPY-Ceramide\nHeLa cells were seeded in 8 well chamber slides (ibidi µ-Slide 8 Well) in RPMI 1640 medium supplemented with 10% (v/v) heat‐inactivated FCS, 1 mM sodium pyruvate and 2 mM L-glutamine at 37 °C and 5% (v/v) CO2 in a humidified incubator. The day after, cells were incubated with inhibitors for 2 h at a concentration of 10 µM or left untreated by replacing the medium with fresh medium supplemented with the respective inhibitors. After 2 h of incubation, BODIPY FL C5-ceramide (Thermo Fisher) was added to a final concentration of 0,25 µM and imaging was immediately done using an LSM 780 laser scanning confocal microscope (Carl Zeiss). No additional wash steps were performed. After 1 h of incubation, DNA was counterstained using Hoechst 33342. For quantification of BODIPY-Ceramide trafficking, cells were transfected with pECFP-GalT the day before inhibitor incubation for the expression of an eCFP fusion of the human galactosyltransferase (GalT; amino acids 1-60), which localizes at the Golgi apparatus. After incubation with the respective inhibitors (see above), cells were imaged at 30 min post addition of BODIPY FL C5-ceramide. Mean BODIPY intensities of regions of interest surrounding eCFP-GalT-positive Golgi stacks were measured (40 cells per biological replicate, 4 biological replicates in total) using ImageJ software (Rasband, W.S., ImageJ, U. S. National Institutes of Health, Bethesda, Maryland, USA, https://imagej.nih.gov/ij/, 1997-2018) and divided by the total BODIPY intensity detected in the field of view. Quantification (Fig 10B) is expressed as normalized intensity ratio (GA/total).\nFigure S10. A Uptake of BODIPY FL C5-ceramide to HeLa cells assessed by normalized fluorescence intensity B Distribution of BODIPY FL C5-ceramide by normalized fluorescence […]\nas §1\nFigure S11. BODIPY-Ceramide trafficking. Confocal images showing distribution of BODIPY FL C5-ceramide (green) and Golgi apparatus costaining (eCFP-GalT; blue) in HeLa cells pretreated with 10 µM of respective inhibitors or left untreated. Figures show representative images (n = 4 biological replicates with 40 cells per biological replicate); scale bars, 10 µm."}}, "note": "Values joined by “and” are separate entries in the source; they are usually repeats but may differ in a detail not shown here. Equal values may be shown once.", "data": [{"smiles": "O=C(NC1CCN(CCCCC2(C(=O)NCC(F)(F)F)c3ccccc3-c3ccccc32)CC1)c1ccccc1-c1ccc(C(F)(F)F)cc1", "note": "[8E8, lomitapide]", "values": [{"measurement": "effect on sphingomyelin at 5 μM", "setting": "HeLa cells [1]; HeLa cells, 5 μM", "result": "drastic reduction"}, {"measurement": "effect on total sphingomyelin", "setting": "HeLa cells [1]; HeLa cells, 48 hours, serum-reduced medium", "result": "dose‐dependent reduction"}, {"measurement": "potency on relation of total sphingomyelin to ceramide compared to HPA-12", "setting": "HeLa cells [1]; HeLa cells, all concentrations", "result": "increased potency"}, {"measurement": "Cer16", "setting": "HeLa cells [1]; 1 µM", "result": "66,02 pmol/sample and 57,09 pmol/sample and 60,15 pmol/sample"}, {"measurement": "Cer18", "setting": "HeLa cells [1]; 1 µM", "result": "7,66 pmol/sample and 6,67 pmol/sample and 6,95 pmol/sample"}, {"measurement": "Cer20", "setting": "HeLa cells [1]; 1 µM", "result": "2,25 pmol/sample and 1,77 pmol/sample and 2,84 pmol/sample"}, {"measurement": "Cer22", "setting": "HeLa cells [1]; 1 µM", "result": "14,47 pmol/sample and 13,05 pmol/sample and 13,35 pmol/sample"}, {"measurement": "Cer24", "setting": "HeLa cells [1]; 1 µM", "result": "34,96 pmol/sample and 30,93 pmol/sample and 30,90 pmol/sample"}, {"measurement": "Cer24:1", "setting": "HeLa cells [1]; 1 µM", "result": "73,09 pmol/sample and 65,48 pmol/sample and 68,22 pmol/sample"}, {"measurement": "Cer total", "setting": "HeLa cells [1]; 1 µM", "result": "198,45 pmol/sample and 178,06 pmol/sample and 179,34 pmol/sample"}, {"measurement": "S1P", "setting": "HeLa cells [1]; 1 µM", "result": "1,12 pmol/sample and 1,00 pmol/sample and 0,85 pmol/sample"}, {"measurement": "SM16", "setting": "HeLa cells [1]; 1 µM", "result": "1825,61 pmol/sample and 1823,48 pmol/sample and 1739,12 pmol/sample"}, {"measurement": "SM18", "setting": "HeLa cells [1]; 1 µM", "result": "59,37 pmol/sample and 58,79 pmol/sample and 52,57 pmol/sample"}, {"measurement": "SM20", "setting": "HeLa cells [1]; 1 µM", "result": "20,60 pmol/sample and 20,35 pmol/sample and 17,81 pmol/sample"}, {"measurement": "SM22", "setting": "HeLa cells [1]; 1 µM", "result": "115,26 pmol/sample and 124,65 pmol/sample and 105,99 pmol/sample"}, {"measurement": "SM24", "setting": "HeLa cells [1]; 1 µM", "result": "173,05 pmol/sample and 183,46 pmol/sample and 158,17 pmol/sample"}, {"measurement": "SM24:1", "setting": "HeLa cells [1]; 1 µM", "result": "817,85 pmol/sample and 842,40 pmol/sample and 760,17 pmol/sample"}, {"measurement": "SM total", "setting": "HeLa cells [1]; 1 µM", "result": "3011,74 pmol/sample and 3053,13 pmol/sample and 2833,83 pmol/sample"}, {"measurement": "Sph", "setting": "HeLa cells [1]; 1 µM", "result": "3,57 pmol/sample and 3,81 pmol/sample and 3,42 pmol/sample"}, {"measurement": "ratio total SM/Cer", "setting": "HeLa cells [1]; 1 µM", "result": "16,8 and 15,4 and 15,9"}, {"measurement": "Cer16", "setting": "HeLa cells [1]; 2.5 µM", "result": "74,51 pmol/sample and 82,98 pmol/sample and 79,41 pmol/sample"}, {"measurement": "Cer18", "setting": "HeLa cells [1]; 2.5 µM", "result": "8,90 pmol/sample and 10,02 pmol/sample and 9,50 pmol/sample"}, {"measurement": "Cer20", "setting": "HeLa cells [1]; 2.5 µM", "result": "2,09 pmol/sample and 2,26 pmol/sample and 2,11 pmol/sample"}, {"measurement": "Cer22", "setting": "HeLa cells [1]; 2.5 µM", "result": "14,83 pmol/sample and 17,07 pmol/sample and 15,69 pmol/sample"}, {"measurement": "Cer24", "setting": "HeLa cells [1]; 2.5 µM", "result": "32,62 pmol/sample and 36,00 pmol/sample and 36,33 pmol/sample"}, {"measurement": "Cer24:1", "setting": "HeLa cells [1]; 2.5 µM", "result": "74,15 pmol/sample and 79,98 pmol/sample and 77,75 pmol/sample"}, {"measurement": "Cer total", "setting": "HeLa cells [1]; 2.5 µM", "result": "207,10 pmol/sample and 228,30 pmol/sample and 220,79 pmol/sample"}, {"measurement": "S1P", "setting": "HeLa cells [1]; 2.5 µM", "result": "0,75 pmol/sample and 1,06 pmol/sample and 1,09 pmol/sample"}, {"measurement": "SM16", "setting": "HeLa cells [1]; 2.5 µM", "result": "1630,84 pmol/sample and 1823,72 pmol/sample and 1666,50 pmol/sample"}, {"measurement": "SM18", "setting": "HeLa cells [1]; 2.5 µM", "result": "53,11 pmol/sample and 57,73 pmol/sample and 55,13 pmol/sample"}, {"measurement": "SM20", "setting": "HeLa cells [1]; 2.5 µM", "result": "19,44 pmol/sample and 21,11 pmol/sample and 18,70 pmol/sample"}, {"measurement": "SM22", "setting": "HeLa cells [1]; 2.5 µM", "result": "103,91 pmol/sample and 113,22 pmol/sample and 105,74 pmol/sample"}, {"measurement": "SM24", "setting": "HeLa cells [1]; 2.5 µM", "result": "157,53 pmol/sample and 168,83 pmol/sample and 156,81 pmol/sample"}, {"measurement": "SM24:1", "setting": "HeLa cells [1]; 2.5 µM", "result": "722,25 pmol/sample and 731,59 pmol/sample and 797,90 pmol/sample"}, {"measurement": "SM total", "setting": "HeLa cells [1]; 2.5 µM", "result": "2725,14 pmol/sample and 2696,43 pmol/sample and 2982,51 pmol/sample"}, {"measurement": "Sph", "setting": "HeLa cells [1]; 2.5 µM", "result": "3,63 pmol/sample and 3,39 pmol/sample and 3,50 pmol/sample"}, {"measurement": "ratio total SM/Cer", "setting": "HeLa cells [1]; 2.5 µM", "result": "12,3 and 13,0 and 13,1"}, {"measurement": "Cer16", "setting": "HeLa cells [1]; 5 µM", "result": "89,79 pmol/sample and 129,48 pmol/sample and 69,03 pmol/sample"}, {"measurement": "Cer18", "setting": "HeLa cells [1]; 5 µM", "result": "7,26 pmol/sample and 11,79 pmol/sample and 5,12 pmol/sample"}, {"measurement": "Cer20", "setting": "HeLa cells [1]; 5 µM", "result": "1,69 pmol/sample and 2,84 pmol/sample and 1,31 pmol/sample"}, {"measurement": "Cer22", "setting": "HeLa cells [1]; 5 µM", "result": "12,62 pmol/sample and 18,55 pmol/sample and 9,43 pmol/sample"}, {"measurement": "Cer24", "setting": "HeLa cells [1]; 5 µM", "result": "22,56 pmol/sample and 31,76 pmol/sample and 18,74 pmol/sample"}, {"measurement": "Cer24:1", "setting": "HeLa cells [1]; 5 µM", "result": "66,19 pmol/sample and 87,40 pmol/sample and 47,19 pmol/sample"}, {"measurement": "Cer total", "setting": "HeLa cells [1]; 5 µM", "result": "200,11 pmol/sample and 281,82 pmol/sample and 150,81 pmol/sample"}, {"measurement": "S1P", "setting": "HeLa cells [1]; 5 µM", "result": "0,37 pmol/sample and 0,42 pmol/sample and 0,53 pmol/sample"}, {"measurement": "SM16", "setting": "HeLa cells [1]; 5 µM", "result": "450,01 pmol/sample and 691,68 pmol/sample and 345,52 pmol/sample"}, {"measurement": "SM18", "setting": "HeLa cells [1]; 5 µM", "result": "25,94 pmol/sample and 35,37 pmol/sample and 18,65 pmol/sample"}, {"measurement": "SM20", "setting": "HeLa cells [1]; 5 µM", "result": "8,48 pmol/sample and 11,39 pmol/sample and 5,85 pmol/sample"}, {"measurement": "SM22", "setting": "HeLa cells [1]; 5 µM", "result": "36,80 pmol/sample and 52,48 pmol/sample and 26,91 pmol/sample"}, {"measurement": "SM24", "setting": "HeLa cells [1]; 5 µM", "result": "50,34 pmol/sample and 70,92 pmol/sample and 33,38 pmol/sample"}, {"measurement": "SM24:1", "setting": "HeLa cells [1]; 5 µM", "result": "200,60 pmol/sample and 298,06 pmol/sample and 137,99 pmol/sample"}, {"measurement": "SM total", "setting": "HeLa cells [1]; 5 µM", "result": "772,16 pmol/sample and 1159,90 pmol/sample and 568,29 pmol/sample"}, {"measurement": "Sph", "setting": "HeLa cells [1]; 5 µM", "result": "3,46 pmol/sample and 3,80 pmol/sample and 3,91 pmol/sample"}, {"measurement": "ratio total SM/Cer", "setting": "HeLa cells [1]; 5 µM", "result": "3,9 and 4,1 and 3,8"}, {"measurement": "effect on intracellular distribution of BODIPY-Cer", "setting": "HeLa cells [2]", "result": "significantly influenced"}]}]}
